Assay results reported in patent US9062051B2, “Compounds and pharmaceutical compositions thereof for the treatment of proliferative disorders” (GALAPAGOS NV, priority 2014, dated 2015).

Legend:
EphA2 = target: T1, EphA2 (UniProt Ref: P29317) (Homo sapiens, UniProt P29317); test: EphA2 assay (Reaction Biology HotSpot radioactive kinase assay); type: biochemical; conditions: ATP 10 μM; read-out: EphA2 potency IC50
T1 construct: purchased Reaction Biology
Method in brief: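 Radiometric HotSpot assay measuring ^33P incorporation from [^33P]-γ-ATP into poly[Glu:Tyr] (4:1) (0.2 mg/mL) with 10 μM ATP. IC50 from serial 1/3 dilutions starting at 10 or 3 μM.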

Recombinant EphB2 = target: T2, Recombinant EphB2 (Homo sapiens, UniProt P29323); test: EphB2 assay (33P incorporation into poly GT, filter plate); type: biochemical; conditions: read-out: EphB2 potency IC50
T2 construct: purchased Carna 08-129
T2 sequence (P29323 19-986 isoform P29323-2 limits assumed): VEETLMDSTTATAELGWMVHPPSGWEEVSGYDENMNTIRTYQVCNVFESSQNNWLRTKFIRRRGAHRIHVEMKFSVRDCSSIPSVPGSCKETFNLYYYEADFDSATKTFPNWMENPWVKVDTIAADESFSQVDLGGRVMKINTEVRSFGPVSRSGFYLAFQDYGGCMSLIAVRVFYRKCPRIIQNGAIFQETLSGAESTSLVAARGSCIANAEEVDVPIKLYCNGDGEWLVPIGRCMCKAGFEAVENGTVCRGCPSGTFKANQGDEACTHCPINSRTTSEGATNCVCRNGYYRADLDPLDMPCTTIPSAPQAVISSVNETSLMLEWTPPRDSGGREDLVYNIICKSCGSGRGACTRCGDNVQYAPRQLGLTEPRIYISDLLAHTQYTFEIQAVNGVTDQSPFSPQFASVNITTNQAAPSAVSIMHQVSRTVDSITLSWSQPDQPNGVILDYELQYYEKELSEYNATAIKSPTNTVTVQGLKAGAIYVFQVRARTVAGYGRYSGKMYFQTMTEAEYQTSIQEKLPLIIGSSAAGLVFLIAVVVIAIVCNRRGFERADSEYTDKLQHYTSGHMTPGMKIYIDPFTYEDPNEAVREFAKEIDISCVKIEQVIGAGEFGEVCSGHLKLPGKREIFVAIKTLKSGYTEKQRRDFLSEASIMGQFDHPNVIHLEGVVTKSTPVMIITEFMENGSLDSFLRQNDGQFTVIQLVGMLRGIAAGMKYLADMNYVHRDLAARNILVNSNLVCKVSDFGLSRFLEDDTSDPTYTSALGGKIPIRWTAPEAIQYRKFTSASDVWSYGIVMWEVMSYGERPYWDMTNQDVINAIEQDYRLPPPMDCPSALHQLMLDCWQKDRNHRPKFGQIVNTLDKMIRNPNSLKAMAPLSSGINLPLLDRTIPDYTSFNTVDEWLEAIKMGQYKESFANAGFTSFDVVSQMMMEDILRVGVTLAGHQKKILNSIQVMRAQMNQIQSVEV
Protocol: The principle of the assay consists of the measurement of incorporated ^33P into the substrate poly GT when phosphorylated by the enzyme EphB2 using [^33P]-γ-ATP and ATP. Unincorporated ^33P is removed by loading the samples on a filter plate (using a harvester, Perkin Elmer) and 6 subsequent washing steps. ^33P incorporated in polyGT is measured on a Topcount after addition of microscint to the filter plates (Perkin Elmer).
Recombinant EphB2 (Carna Cat#08-129, 0.6 ng per well) was incubated with 0.05 mg/mL Poly(Glu,Tyr)sodium salt (4:1), MW 20 000-50 000 (Sigma catalog number P0275) in kinase reaction buffer (10 mM MOPS pH 7.2, 5 mM DTT, 0.01% Triton-X100, 5 mM MnCl2, 0.5 mM Na3VO4, 5 mM beta-glycerolphosphate), 0.5 μM non-radioactive ATP, 0.25 μCi/25 μl ^33P-gamma-ATP (Perkin Elmer, catalog number NEG602K) final concentrations with or without 5 μL containing test compound or vehicle (DMSO, 1% final concentration), in a total volume of 25 μL, in a polypropylene 96-well plate (Greiner, V-bottom). After 45 min at 30° C., reactions were stopped by adding of 25 μL/well of 150 mM phosphoric acid. The experiment was then conducted as described for EphA7. The ability of a test compound to inhibit the kinase activity was determined using counts per minutes (cpm) measured by the Topcount as:
Cpm (cpd): cpm determined for sample with test compound present
Cpm (control): cpm determined for sample with positive control inhibitor (10 μM staurosporine)
Cpm (vehicle): cpm determined in the presence of vehicle (1% DMSO)
Dose dilution series were prepared for the compounds enabling the testing of dose-response effects in the EphB2 assay and the calculation of the IC50 for each compound. Each compound was routinely tested at concentration of 20 μM followed by a 1/5 serial dilution, 10 points in a final concentration of 1% DMSO. When potency of compound series increased, more dilutions may be prepared and/or the top concentration may be lowered (e.g. 5 μM, 1 μM).

T1 sequence (P29317 24-976): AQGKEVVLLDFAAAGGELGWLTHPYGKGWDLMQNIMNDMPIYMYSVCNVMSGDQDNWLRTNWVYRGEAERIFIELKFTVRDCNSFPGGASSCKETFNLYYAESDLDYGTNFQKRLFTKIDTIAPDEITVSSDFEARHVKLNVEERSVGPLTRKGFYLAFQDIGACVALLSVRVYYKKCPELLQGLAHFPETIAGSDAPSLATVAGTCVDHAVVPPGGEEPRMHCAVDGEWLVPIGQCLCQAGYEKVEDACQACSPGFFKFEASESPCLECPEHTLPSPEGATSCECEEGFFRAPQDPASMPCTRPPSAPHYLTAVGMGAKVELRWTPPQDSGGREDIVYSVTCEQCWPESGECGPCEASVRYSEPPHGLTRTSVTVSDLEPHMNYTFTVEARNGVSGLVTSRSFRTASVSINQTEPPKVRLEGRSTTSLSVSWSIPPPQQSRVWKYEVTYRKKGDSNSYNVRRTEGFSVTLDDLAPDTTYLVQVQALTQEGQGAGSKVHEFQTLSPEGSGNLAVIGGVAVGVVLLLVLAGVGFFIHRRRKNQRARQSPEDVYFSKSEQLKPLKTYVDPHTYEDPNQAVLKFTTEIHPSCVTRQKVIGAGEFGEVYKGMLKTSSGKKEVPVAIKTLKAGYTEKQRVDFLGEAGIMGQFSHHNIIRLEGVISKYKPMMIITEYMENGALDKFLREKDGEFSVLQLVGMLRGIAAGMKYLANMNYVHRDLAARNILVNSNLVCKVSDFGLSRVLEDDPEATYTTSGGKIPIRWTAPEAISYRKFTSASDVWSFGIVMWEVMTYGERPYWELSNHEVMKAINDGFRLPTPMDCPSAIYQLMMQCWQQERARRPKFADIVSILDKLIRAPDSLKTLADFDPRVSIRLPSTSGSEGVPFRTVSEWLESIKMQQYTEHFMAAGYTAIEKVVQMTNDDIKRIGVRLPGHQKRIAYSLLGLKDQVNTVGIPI

## Cc1ccc(NC(=O)c2cccc(C(F)(F)F)c2)cc1-c1ccc2c(C(O)CN3CCOCC3)n[nH]c2n1 (stereo not drawn) [Compound 2, N-{3-[3-(1-Hydroxy-2-morpholin-4-yl-ethyl)-1H-pyrazolo[3,4-b]pyridin-6-yl]-4-methyl-phenyl}-3-trifluoromethyl-benzamide]
EphA2
  IC50: 50 to 100 nM
Recombinant EphB2
  IC50: 25 to 50 nM

## Cc1cccc(C(=O)Nc2ccc(C)c(-c3ccc4c(C(O)CN5CCOCC5)n[nH]c4n3)c2)c1 (stereo not drawn) [Compound 3, N-{3-[3-(1-Hydroxy-2-morpholin-4-yl-ethyl)-1H-pyrazolo[3,4-b]pyridin-6-yl]-4-methyl-phenyl}-3-methyl-benzamide]
Recombinant EphB2
  IC50: 50 to 100 nM

## COc1cc(OC)cc(C(=O)Nc2ccc(C)c(-c3ccc4c(C(O)CN5CCOCC5)n[nH]c4n3)c2)c1 (stereo not drawn) [Compound 4, N-{3-[3-(1-Hydroxy-2-morpholin-4-yl-ethyl)-1H-pyrazolo[3,4-b]pyridin-6-yl]-4-methyl-phenyl}-3,5-dimethoxy-benzamide]
EphA2
  IC50: > 100 nM
Recombinant EphB2
  IC50: 50 to 100 nM

## Cc1ccc(C(=O)Nc2cccc(C(F)(F)F)c2)cc1-c1ccc2c(C(O)CN3CCOCC3)n[nH]c2n1 (stereo not drawn) [Compound 5, 3-[3-(1-Hydroxy-2-morpholin-4-yl-ethyl)-1H-pyrazolo[3,4-b]pyridin-6-yl]-4-methyl-N-(3-trifluoromethyl-phenyl)-benzamide]
EphA2
  IC50: 0.01 to 25 nM
Recombinant EphB2
  IC50: > 100 nM

## Cc1ccc(NC(=O)c2cccc(N(C)C)c2)cc1-c1ccc2c(C(O)CN3CCOCC3)n[nH]c2n1 (stereo not drawn) [Compound 6, 3-Dimethylamino-N-{3-[3-(1-hydroxy-2-morpholin-4-yl-ethyl)-1H-pyrazolo[3,4-b]pyridin-6-yl]-4-methyl-phenyl}-benzamide]
EphA2
  IC50: 50 to 100 nM
Recombinant EphB2
  IC50: 25 to 50 nM

## COc1cc(OC)cc(C(=O)Nc2ccc(C)c(-c3ccc4c(C(C)O)n[nH]c4n3)c2)c1 (stereo not drawn) [Compound 9, N-{3-[3-(1-Hydroxy-ethyl)-1H-pyrazolo[3,4-b]pyridin-6-yl]-4-methyl-phenyl}-3,5-dimethoxy-benzamide]
EphA2
  IC50: 25 to 50 nM
Recombinant EphB2
  IC50: 25 to 50 nM

## COc1cc(OC)cc(C(=O)Nc2ccc(C)c(-c3ccc4c(C)n[nH]c4n3)c2)c1 [Compound 11, 3,5-Dimethoxy-N-[4-methyl-3-(3-methyl-1H-pyrazolo[3,4-b]pyridin-6-yl)-phenyl]-benzamide]
EphA2
  IC50: 0.01 to 25 nM
Recombinant EphB2
  IC50: 0.01 to 25 nM

## CCc1n[nH]c2nc(-c3cc(NC(=O)c4cc(OC)cc(OC)c4)cnc3C)ccc12 [Compound 13, N-[5-(3-Ethyl-1H-pyrazolo[3,4-b]pyridin-6-yl)-6-methyl-pyridin-3-yl]-3,5-dimethoxy-benzamide]
EphA2
  IC50: 50 to 100 nM
Recombinant EphB2
  IC50: 50 to 100 nM

## Cc1cc(C)cc(C(=O)Nc2ccc(C)c(-c3ccc4c(CO)n[nH]c4n3)c2)c1 [Compound 16, N-[3-(3-Hydroxymethyl-1H-pyrazolo[3,4-b]pyridin-6-yl)-4-methyl-phenyl]-3,5-dimethyl-benzamide]
EphA2
  IC50: 0.01 to 25 nM
Recombinant EphB2
  IC50: 0.01 to 25 nM

## COc1cc(OC)cc(C(=O)Nc2cnc(C)c(-c3ccc4c(C)n[nH]c4n3)c2)c1 [Compound 17, 3,5-Dimethoxy-N-[6-methyl-5-(3-methyl-1H-pyrazolo[3,4-b]pyridin-6-yl)-pyridin-3-yl]-benzamide]
EphA2
  IC50: 50 to 100 nM
Recombinant EphB2
  IC50: 25 to 50 nM

## CCc1n[nH]c2nc(-c3cc(NC(=O)c4cc(C)cc(OCCN5CCOCC5)c4)ccc3C)ccc12 [Compound 20, N-[3-(3-Ethyl-1H-pyrazolo[3,4-b]pyridin-6-yl)-4-methyl-phenyl]-3-methyl-5-(2-morpholin-4-yl-ethoxy)-benzamide]
EphA2
  IC50: 0.01 to 25 nM
Recombinant EphB2
  IC50: 0.01 to 25 nM

## CCc1n[nH]c2nc(-c3cc(NC(=O)c4cc(C)cc(OCCOC)c4)ccc3C)ccc12 [Compound 21, N-[3-(3-Ethyl-1H-pyrazolo[3,4-b]pyridin-6-yl)-4-methyl-phenyl]-3-(2-methoxy-ethoxy)-5-methyl-benzamide]
EphA2
  IC50: 25 to 50 nM
Recombinant EphB2
  IC50: 0.01 to 25 nM

## COc1cc(OC)cc(C(=O)Nc2ccc(C)c(-c3ccc4c(C5(O)CC5)n[nH]c4n3)c2)c1 [Compound 29, N-{3-[3-(1-Hydroxy-cyclopropyl)-1H-pyrazolo[3,4-b]pyridin-6-yl]-4-methyl-phenyl}-3,5-dimethoxy-benzamide]
EphA2
  IC50: 50 to 100 nM
Recombinant EphB2
  IC50: 0.01 to 25 nM

## Cc1ccc(NC(=O)c2cccc(C(F)(F)F)c2)cc1-c1ccc2c(C(C)O)n[nH]c2n1 (stereo not drawn) [Compound 35, N-{3-[3-(1-Hydroxy-ethyl)-1H-pyrazolo[3,4-b]pyridin-6-yl]-4-methyl-phenyl}-3-trifluoromethyl-benzamide]
EphA2
  IC50: 25 to 50 nM
Recombinant EphB2
  IC50: 50 to 100 nM

## CCc1n[nH]c2nc(-c3cc(NC(=O)c4cc(OC)cc(C(F)(F)F)c4)cnc3C)ccc12 [Compound 49, N-[5-(3-Ethyl-1H-pyrazolo[3,4-b]pyridin-6-yl)-6-methyl-pyridin-3-yl]-3-methoxy-5-trifluoromethyl-benzamide]
Recombinant EphB2
  IC50: > 100 nM

## CCc1n[nH]c2nc(-c3cc(NC(=O)c4cc(C)cc(C)c4)cnc3C)ccc12 [Compound 50, N-[5-(3-Ethyl-1H-pyrazolo[3,4-b]pyridin-6-yl)-6-methyl-pyridin-3-yl]-3,5-dimethyl-benzamide]
EphA2
  IC50: 50 to 100 nM
Recombinant EphB2
  IC50: > 100 nM

## Cc1ccc(NC(=O)c2cccc(C(F)(F)F)c2)cc1-c1ccc2c([C@H](C)O)n[nH]c2n1 [Compound 55, N-{3-[3-((S)-1-Hydroxy-ethyl)-1H-pyrazolo[3,4-b]pyridin-6-yl]-4-methyl-phenyl}-3-trifluoromethyl-benzamide]
EphA2
  IC50: 0.01 to 25 nM
Recombinant EphB2
  IC50: 0.01 to 25 nM

## Cc1ccc(NC(=O)c2cccc(C(F)(F)F)c2)cc1-c1cc(C)c2c(N)n[nH]c2n1 [Compound A, N-(3-(3-amino-4-methyl-1H-pyrazolo[3,4-b]pyridin-6-yl)-4-methylphenyl)-3-(trifluoromethyl)benzamide]
Recombinant EphB2
  IC50: 0.01 to 25 nM
